In patent publication US8853215B2, “Derivatives of N-acyl-N′-phenylpiperazine useful (inter alia) for the prophylaxis or treatment of diabetes” (Takeda Pharmaceutical Company Limited, priority 2009, dated 2014):

Assays:
human RBP4 = human RBP4 (Homo sapiens (Human), UniProt P02753); experiment: Binding assay by Retinol-RBP4-TTR ELISA; conditions: for IC50: retinol 50 nM, His-tagged human RBP4, biotinylated human TTR, read-out: human RBP4 binding inhibitory activity (IC50 nM)
Protocol: The action of the compound of the present invention to inhibit binding of RBP4 and retinol and TTR was evaluated using the Retinol-RBP4-TTR ELISA system shown below.
1F: Binding Assay by Retinol-RBP4-TTR ELISA
This ELISA system detects a complex of RBP4 and TTR based on a retinol-dependent binding of RBP4 to TTR.
His-tagged human RBP4 used was prepared in the above-mentioned 1C.
Biotinylate human TTR used was prepared in the above-mentioned 1E.
Streptavidin (20 μl) (10 μg/ml Streptavidin type II (Wako Pure Chemical Industries, Ltd.), 10 mM Tris-HCl (pH 7.5), 10 mM NaCl) was added to a 384 well black plate (Nunc MaxiSorp, Thermo Fisher Scientific Inc.), and the plate was subjected to centrifugation (1000 rpm, 1 min) and coated overnight at 4° C. The plate was washed twice with PBST (PBS, 0.05% Tween 20, 100 μl/well) and blocked with 25% Block Ace (Snow Brand Milk Products Co., Ltd., PBS, 100 μl/well). The plate was subjected to centrifugation (1000 rpm, 1 min) and incubated at room temperature for 4 hr or overnight at 4° C. The plate was washed twice with PBST (PBS, 0.05% Tween 20, 100 μl/well), and biotinylate human TTR (stock solution concentration 1.0 mg/ml) diluted 750-fold with PBST was added at 20 μl/well. The plate was subjected to centrifugation (1000 rpm, 1 min) and stood still at room temperature for 1.5 hr or overnight at 4° C. The plate was washed 3 times with PBST (100 μl/well), and His-tagged human RBP4 (stock solution concentration 0.96 mg/ml) diluted 4000-fold with a reaction buffer (50 mM Tris-HCl, 150 mM NaCl, 0.005% Tween 20, 1 mM DTT, 0.1% BSA) was added at 10 μl/well. The dilution series (8 doses from 10 mM, 200-fold concentration) of the compound was prepared with DMSO, and 1 μl of each was added to a reaction buffer (200 μl) containing retinol (50 nM) (Sigma-Aldrich Co.). A reaction buffer (200 μl) containing retinol and added with DMSO was used as a positive control, and reaction buffer (200 μl) free of retinol and added with DMSO was used as a negative control. Mixed solutions of retinol and the compound were added to the plate at 15 μl/well. The plate was stirred in a platemixer subjected to centrifugation (1000 rpm, 1 min) and reacted at room temperature for 2 hr. A 35% Block Ace solution diluted with the reaction buffer was added at 10 μl/well, centrifuged (1000 rpm, 1 min) and reacted at room temperature for 30 min. The plate was washed 3 times with PBST (100 μl/well) and SuperSignal ELISA Femto Maximum Sensitivity Substrate reagent (PIERCE, Thermo Fisher Scientific Inc.) was added at 30 μl/well, and the luminescence was measured by a platereader (Wallac).
The binding inhibitory activity of the compound was determined by 100×(positive control value-test compound value)/(positive control value-negative control value). The binding activity (IC50) was calculated from the binding inhibitory rate at each compound concentration using a graph drawing software, GraphPad Prism (GraphPad Software Inc.).

Zucker fatty rats = experiment: Repeated drug administration test in Zucker fatty rats, plasma glucose and glycosylated hemoglobin; format: in vivo, Zucker fatty rats (fa/fa)
Protocol: The effect of the compound of the present invention on plasma levels of glucose and glycosylated hemoglobin were evaluated using the animal model shown below.
(§1) Male Zucker fatty rats (fa/fa) and their lean littermates (Fa/?) were bred in Takeda Pharmaceutical Company Limited and maintained on normal diet (CE2, CLAE Japan, Inc.) and tap water. Animals were housed in a temperature-controlled room adjusted to a 12-hour light/12-hour dark cycle beginning at 7:00 and 19:00, respectively. All procedures were conducted according to the experimental animal care use committee of Takeda Pharmaceutical Company Limited.
From 8 weeks of age, Zucker fatty rats were maintained on a high fat diet (D06110702, 20 kCal % fat) (LSG Corporation, Japan). A compound was suspended in 0.5% (w/v) methylcellulose in water and given orally to rats at a volume of 5 mL/kg of body weight. After 4 days of pre-administration of 0.5% (w/v) methylcellulose, rats were divided based on body weight, glycosylated hemoglobin, and plasma glucose (PG) (n=6 each). Drug administration was started at 15 weeks of age and a drug (10 mg/kg) was administered once a day for 28 days.
Before and 28 days after the administration, blood samples were obtained from tail vein with sodium heparin as an anticoagulant, followed by plasma separation by centrifugation. Plasma glucose (PG) levels were measured enzymatically by an Autoanalyzer 7180 (Hitachi, Japan). Glycosylated hemoglobin levels were analyzed by a high performance liquid chromatography-based method using an automated analyzer HLC-723 or HLC-723 G7 (Tosoh, Japan). The changes in glycosylated hemoglobin were calculated by subtracting the initial value from final value.

RBP4 [1] = molecular target: RBP4 (Rattus norvegicus (Rat), UniProt P04916); experiment: Single administration test in Wistar fatty rats, plasma RBP4 by ELISA; format: in vivo; conditions: male Wistar fatty rats, 10 mg/kg oral single dose, mean±SD; for RBP4 (% of initial/Control) 0 hr: 0 hr (just before the administration); for RBP4 (% of initial/Control) 4 hr: 4 hr after administration; for RBP4 (% of initial/Control) 7 hr: 7 hr after administration; for RBP4 (% of initial/Control) 24 hr: 24 hr after administration
Protocol: The action of the compounds of the present invention to lower plasma RBP4 level was evaluated using the animal model shown below.
as §1, with “Wistar” for “Zucker”, “(fa/fa)” for “(fa/fa) and their lean littermates (Fa/?)”, “Company.” for “Company Limited.”
(§2) Male 13-43-week-old Wistar fatty rats were divided into groups randomly. Compounds were suspended in 0.5% (w/v) methylcellulose in water and given orally to Wistar fatty rats at a dose of 10 mg/10 mL/kg of body weight (3-5 rats per group). Blood samples were obtained from tail vein with sodium heparin as an anticoagulant at time 0 hr (just before the administration), 4 hr, 7 hr, and 24 hr after the administration, followed by plasma separation by centrifugation. Plasma RBP4 levels were measured by enzyme-linked immunosorbent assay described in the following section.
(§3) Plasma samples were analyzed in duplicate for RBP4 by an enzyme-linked immunosorbent assay. Mouse recombinant RBP4 (Takeda Pharmaceutical Company Limited) was used as standards, and the assay range was 0.313-20 ng/ml. Samples were diluted 10,000-fold with phosphate-buffered saline (PBS) (Sigma) containing 10% (w/v) BlockAce (Dainippon Sumitomo Pharma Co., Ltd). Rabbit anti-RBP4 polyclonal antibody (100 μL/well of 50 μg/mL, Hokudo Co, Ltd) was incubated in a 96-well plate (Nalge Nunc International K.K.) for overnight at 4° C. Subsequently, the plates were washed with PBS-T (Wako Pure Chemical Industries, Ltd.) and blocked with PBS containing 25% BlockAce for 1 hr at room temperature. After another washing with PBS-T, samples and standards were applied to the well, and the plates were incubated for 2 hr at room temperature. After a washing the wells, peroxidase-labeled (Dojindo Laboratories) anti-RBP4 (100 μL/well) was added to the wells, and then the plates were incubated for 1 hr at room temperature. After a final washing with PBS-T, substrate solution 3,3,5,5-tetramethylbenzidine (Sigma) was added to the wells, and the plates were placed in the dark for 5-20 min at room temperature. The reaction was stopped with 0.5 M sulphuric acid and the optical density was measured with a spectrophotometer at 450 nm. The changes in plasma RBP4 levels were expressed as % of initial/Control. All data are presented as mean±SD.

RBP4 [2] = molecular target: RBP4 (Mus musculus (Mouse), UniProt Q00724); experiment: Single administration test in mice, plasma RBP4 by ELISA; format: in vivo; conditions: male C57BL/6J or ICR mice, 50 mg/kg oral single dose, mean±SD
Protocol: The action of the compounds of the present invention to reduce plasma RBP4 level was evaluated using the animal model shown below.
Male C57BL/6J and ICR mice were purchased from Charles River (Japan) and maintained on a normal diet (CE2, CLAE Japan, Inc.) and tap water. Animals were housed in a temperature-controlled room adjusted to a 12-hour light/12-hour dark cycle beginning at 7:00 and 19:00, respectively. All procedures were conducted according to the experimental animal care use committee of Takeda Pharmaceutical Company.
as §2, with “Male 6-12-week-old C57BL/6J or ICR mice were housed individually and fed CE2 for 4-6 days. After acclimatization, mice” for “Male 13-43-week-old Wistar fatty rats”, “groups based on their body weight.” for “groups randomly.”, “to mice” for “to Wistar fatty rats”, “of 50” for “of 10”, “weight (three to five mice” for “weight (3-5 rats”, “from orbital” for “from tail”
as §3, with “Company)” for “Company Limited)”

[3] = Zucker fatty rats, 10 mg/kg, 28 days repeated administration

IC50 (human RBP4)	RBP4 (% of initial/Control) 0 hr (RBP4 [1])	RBP4 (% of initial/Control) 4 hr (RBP4 [1])	RBP4 (% of initial/Control) 7 hr (RBP4 [1])	RBP4 (% of initial/Control) 24 hr (RBP4 [1])	inhibition at 10 µM (human RBP4; at 10 μM compound, read-out: human RBP4 binding inhibitory activity(% at 10 μM))	RBP4 (% of initial/Control) 0 hr (RBP4 [2]; 0 hr (just before the administration))	RBP4 (% of initial/Control) 4 hr (RBP4 [2]; 4 hr after administration)	RBP4 (% of initial/Control) 7 hr (RBP4 [2]; 7 hr after administration)	RBP4 (% of initial/Control) 24 hr (RBP4 [2]; 24 hr after administration)	Structure (SMILES)	Glycosylated hemoglobin (%) (Zucker fatty rats; Zucker fatty rats on high fat diet, 10 mg/kg oral once a day for 28 days, change = final minus initial value, mean±SD)	PG (% of initial/Vehicle) (Zucker fatty rats; Zucker fatty rats on high fat diet, 10 mg/kg oral once a day for 28 days, plasma glucose, mean±SD)	effect on PG (in words) (Zucker fatty rats; [3])	effect on glycosylated hemoglobin (in words) (Zucker fatty rats; [3])
540 nM	100 ± 14.1 % of initial/Control	36.2 ± 5.0 % of initial/Control	27.4 ± 5.9 % of initial/Control	104.5 ± 4.4 % of initial/Control	–	–	–	–	–	CC(C)(C)c1ccccc1N1CCN(C(=O)NCC(=O)O)CC1 [Example 6, N-{[4-(2-tert-Butylphenyl)piperazin-1-yl]carbonyl}glycine]	0.95 ± 0.67%	70.0 ± 19.7 % of initial/Vehicle	decreased PG significantly	tended to decrease glycosylated hemoglobin (not significant)
54 nM	100.0 ± 8.5 % of initial/Control	49.6 ± 1.3 % of initial/Control	49.2 ± 1.9 % of initial/Control	114.3 ± 6.0 % of initial/Control	–	–	–	–	–	CC(C)(C)c1ccccc1N1CCN(C(=O)CC(=O)O)CC1 [Example 9, 3-[4-(2-tert-Butylphenyl)piperazin-1-yl]-3-oxopropanoic acid]	–	–	–	–
64 nM	100.0 ± 5.3 % of initial/Control	36.8 ± 5.8 % of initial/Control	31.6 ± 7.7 % of initial/Control	54.4 ± 14.3 % of initial/Control	–	–	–	–	–	CC(C)(C)c1ccccc1N1CCN(C(=O)CCC(=O)NS(C)(=O)=O)CC1 [Example 55, 4-(4-(2-tert-Butylphenyl)piperazin-1-yl)-N-(methylsulfonyl)-4-oxobutanamide]	–	–	–	–
300 nM	100.0 ± 8.7 % of initial/Control	76.2 ± 11 % of initial/Control	89.1 ± 15.4 % of initial/Control	97.9 ± 10.4 % of initial/Control	–	–	–	–	–	CC(C)(C)c1ccccc1N1CCN(C(=O)Cc2nnn[nH]2)CC1 [Example 58, 1-(4-(2-tert-Butylphenyl)piperazin-1-yl)-2-(1H-tetrazol-5-yl)ethanone]	–	–	–	–
–	–	–	–	–	100%	100.0 ± 7.3 % of initial/Control	45.0 ± 1.9 % of initial/Control	57.6 ± 5.6 % of initial/Control	75.8 ± 6.0 % of initial/Control	CC(C)(C)c1ccccc1N1CCN(C(=O)c2ccc(SCC(=O)O)nc2)CC1 [Example 25, [(5-{[4-(2-tert-Butylphenyl)piperazin-1-yl]carbonyl}pyridin-2-yl)sulfanyl]acetic acid]	–	–	–	–
